Data taken from patent US20160376263A1, “BITTER TASTE MODIFIERS INCLUDING SUBSTITUTED 1-BENZYL-3-(1-(ISOXAZOL-4-YLMETHYL)-1H-PYRAZOL-4-YL)IMIDAZOLIDINE-2,4-DIONES AND COMPOSITIONS THEREOF” (SENOMYX, INC., priority 2016, published 2016).

Key:
[1] = target: T1, hT2R8 bitter receptor (Homo sapiens, UniProt Q9NYW2); experiment: hT2R8 bitter receptor inhibition; assay type: cell-based; details: read-out: IC50, inhibition of hT2R08 bitter receptor
T1 sequence (Q9NYW2 1-309): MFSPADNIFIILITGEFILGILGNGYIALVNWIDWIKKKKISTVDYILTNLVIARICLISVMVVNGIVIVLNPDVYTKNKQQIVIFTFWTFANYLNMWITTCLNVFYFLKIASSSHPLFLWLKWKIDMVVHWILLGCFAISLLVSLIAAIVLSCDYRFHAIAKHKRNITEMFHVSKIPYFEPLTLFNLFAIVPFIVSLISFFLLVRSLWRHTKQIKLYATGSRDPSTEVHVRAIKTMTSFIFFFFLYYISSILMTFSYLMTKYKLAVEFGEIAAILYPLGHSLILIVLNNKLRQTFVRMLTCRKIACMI

IC50 [1]: 10 nM
melting point: 213 to 215 °C
SMILES: Cc1noc(C)c1Cn1cc(N2C(=O)N(Cc3cc(O)cc(O)c3)C(C)(C)C2=O)cn1 [Example 105]
